Experiment: Thioflavin T-test (ThT) of physical stability (fibril formation) of pharmaceutical formulations after storage at 37° C.
Format: physicochemical
Settings: for Fluorescence units after storage at 37° C., T = 0 week / Fluorescence units after storage at 37° C., T = 1 month / Fluorescence units after storage at 37° C., T = 1 week: pH of pharmaceutical formulation 7.4
Experimental: Before freeze drying the solution or suspension of the peptide it has been adjusted to the aimed pH. After freeze drying pharmaceutical formulations were prepared according to General procedure 1 and 2.
Preservative, isotonic agent and buffer were dissolved in water and pH adjusted to 7.4. Hereafter the freeze dried peptide was dissolved while stirring slowly. The pH was adjusted to 7.4 using Sodium Hydroxide and/or Hydrochloric Acid. Finally, the formulation was filtered through a 0.22 μm filter.
Preservative, isotonic agent and buffer were dissolved in water and pH adjusted to 7.4. The peptide was dissolved in water while stirring slowly. The two solutions were mixed and pH adjusted to 7.4 using Sodium Hydroxide and/or Hydrochloric acid. Finally, the formulation was filtered through a 0.22 μm filter.
Preservative, isotonic agent and buffer were dissolved in water and pH adjusted to 7.4 or lower. Compound 1 was dissolved in water while stirring slowly and pH is adjusted to 11.5 by the addition of Sodium Hydroxide. After approx. 5 min the two solutions were mixed and pH adjusted to 7.4 using Sodium Hydroxide and/or Hydrochloric acid. Finally, the formulation was filtered through a 0.22 μm filter.
Physical stability of the formulations is evaluated by means of the Thioflavin T-test. The physical stability of the different formulations is characterized by their tendency to form fibrils. A method to determine the presence of fibrils is the Thioflavin T-test. The histological thiazole dye Thioflavin T (ThT) is used as an indicator of amyloid fibril formation. The method is based on the fluorescent characteristics of ThT. […] The physical stability of the formulations is evaluated by the ThT-test after storage of the formulation is top filled glass cartridges for various time periods.

[1] = pH of Compound 1 before freeze drying 8.0, 3 mg/ml
[2] = pH of Compound 1 before freeze drying 9.5, 3 mg/ml
[3] = pH of Compound 1 before freeze drying 9.5, 6.25 mg/ml
[4] = pH of Compound 1 before freeze drying 11.5, 3 mg/ml
[5] = pH of Compound 1 before freeze drying 11.5, 6.25 mg/ml
[6] = pH of solution containing the drug substance 8.0, 6.25 mg/ml
[7] = pH of solution containing the drug substance 11.5, 6.25 mg/ml

## Arg^34, Lys^26 (N^ε-(γ-Glu(N^α-hexadecanoyl)))GLP-1(7-37) [Compound 1]
Compound 1 adjusted to pH 8.0 before freeze drying
  Physical stability (change in ThT) after 1 week and 1 months storage at 37° C.: an increase in ThT is seen
Compound 1 adjusted to pH 9.5 before freeze drying
  Physical stability (change in ThT) after 1 week and 1 months storage at 37° C.: no increase in ThT is seen
Compound 1 adjusted to pH 11.5 before freeze drying
  Physical stability (change in ThT) after 1 week and 1 months storage at 37° C.: no increase in ThT is seen
[1]
  Fluorescence units after storage at 37° C., T = 0 week: 6 fluorescence units
  Fluorescence units after storage at 37° C., T = 1 month: 28 fluorescence units
pH of Compound 1 before freeze drying 8.0, 6.25 mg/ml
  Fluorescence units after storage at 37° C., T = 1 month: 37 fluorescence units
[2]
  Fluorescence units after storage at 37° C., T = 0 week: 6 fluorescence units
  Fluorescence units after storage at 37° C., T = 1 month: 7 fluorescence units
[3]
  Fluorescence units after storage at 37° C., T = 1 month: 13 fluorescence units
  Fluorescence units after storage at 37° C., T = 1 week: 13 fluorescence units
[4]
  Fluorescence units after storage at 37° C., T = 0 week: 6 fluorescence units
  Fluorescence units after storage at 37° C., T = 1 month: 7 fluorescence units
[5]
  Fluorescence units after storage at 37° C., T = 0 week: 14 fluorescence units
  Fluorescence units after storage at 37° C., T = 1 month: 14 fluorescence units
  Fluorescence units after storage at 37° C., T = 1 week: 13 fluorescence units
[6]
  Fluorescence units after storage at 37° C., T = 0 week: 14 fluorescence units
  Fluorescence units after storage at 37° C., T = 1 month: 41 fluorescence units
  Fluorescence units after storage at 37° C., T = 1 week: 20 fluorescence units
[7]
  Fluorescence units after storage at 37° C., T = 0 week: 13 fluorescence units
  Fluorescence units after storage at 37° C., T = 1 month: 13 fluorescence units
  Fluorescence units after storage at 37° C., T = 1 week: 12 fluorescence units
pH raised above neutral pH (>8) in the solution containing the drug substance
  Physical stability (change in ThT) after 1 month at 37° C.: no increase in ThT is seen

Reference: patent US8614181B2, “Stabilized pharmaceutical peptide compositions” (Novo Nordisk A/S, priority 2003, dated 2013)
